Measured values reported in PMC8004375, “Pharmacokinetic Study of Safrole and Methyl Eugenol after Oral Administration of the Essential Oil Extracts of Asarum in Rats by GC-MS” (BioMed Research International, 2021).

Legend:
[1] = Stability of analytes in rat plasma (QC samples); format: in vitro ADME; settings: for Stability in plasma samples: all conditions studied: room temperature 4 h, three freeze-thaw cycles, auto-sampler 12 h, -80°C 7 days; for Measured concentration, three freeze-thaw cycles / Measured concentration, -80°C for 7 days / Measured concentration, auto-sampler for 12 h / Measured concentration, room temperature for 4 h: rat plasma, n = 6; for Measured concentration, three freeze-thaw cycles: freeze -20°C
Procedure: The stability was evaluated under different condition with variable time and temperature including long-term stability (storing the QC samples at -80°C for 7 days), short-term stability (storing the QC samples at room temperature for 4 h), freeze/thaw stability (three freeze (-20°C) thaw cycles), and auto-sampler stability (incubating the spiked samples for 12 h in auto-sampler).

[2] = Pharmacokinetic study in rat plasma after oral administration of Asarum essential oil extracts (GC-MS); format: in vivo, Sprague–Dawley rats; settings: oral Asarum extracts 20 g/kg; for MRT / Cmax / half-life / AUC(0-inf) / AUC(0-t) / Tmax / MRT last / MRT inf: male, Sprague-Dawley, in vivo; for MRT: 0−t or 0−∞ not specified, read-out: mean residence time; for Cmax: as stated in text without unit; for half-life: elimination half-life; for half-life / AUC(0-inf) / AUC(0-t) / Tmax / MRT last / MRT inf: n = 6, mean ± SD; for MRT last: read-out: MRT(0 − t); for MRT inf: read-out: MRT(0 − ∞)
Procedure: The GC–MS system (Shimadzu GC-MS QP-2010 Ultrasystem) was coupled with an AOC-20i autosampler. The column used was a DB-17 capillary column (30 m × 0.25 mm × 0.25 μm film thickness). 99.99% high purity Helium was used as the carrier gas with a flow rate of 1.3 mL/min. The column temperature was programmed as follows: initial temperature 90°C, 20°C/min to 106°C, 30°C/min to 136°C, 40°C/min to 210°C, and finally 5.5°C/min to 214°C. The injection volume was 1 μL, and the injection temperature was 250°C.
The MS data were acquired in the electron-impact mode, and the SIM mode was used for quantification. The three characteristic ions of safrole were 162.0, 131.0, and 104.0 and that of methyl eugenols were 178.0, 163.0, and 147.0 (ions in bold fonts were used for the quantification). The transfer line temperature was set at 250°C, and the ionization source temperature was set at 230°C. The total run time was 4.5 min with a solvent delay of 3 min.
100 μL plasma sample was incorporated with 10 μL n-hexane and 10 μL of IS (5 μg/mL) and vortexed for 30 seconds. 130 μL n-hexane was then added to the sample and vortex-mixed for 5 min. The samples were centrifuged (12,000 × g, 10 min, 4°C), and […] was injected for GC-MS analysis.
All animal protocols were approved by the Laboratory Animal Ethics Committee of Tianjin University Traditional Chinese Medicine (TCM-LAEC20190059). Six male Sprague–Dawley rats (body weight 240 ± 10 g) were fasted for 12 h prior to the study, with free access to water. The Asarum extracts were administered to rats orally at a dose of 20 g/kg. 0.5% CMC-Na aqueous solution was used to dissolve the Asarum extracts to a concentration of 2 g/mL suspension and stored at 4°C. Approximately 220 μL blood samples were collected from the suborbital vein into centrifuge tubes at 0, 0.08, 0.17, 0.5, 1, 2, 4, 6, 8, 10, 12, 24, 36, 48, and 60 h postadministration in rats. The plasma was separated by centrifugation at 4000 × g for 10 min immediately and frozen at -80°C until the time of analysis. The main program pharmacokinetic parameters were processed by Drug and Statistics 3.0 (Medical College of Wannan, China).

[3] = International Agency for Research on Cancer classification; cited from earlier work
[4] = high QC (spiked 12000 ng/mL safrole, 8000 ng/mL methyl eugenol)
[5] = low QC (spiked 120 ng/mL safrole, 80 ng/mL methyl eugenol)
[6] = medium QC (spiked 1200 ng/mL safrole, 800 ng/mL methyl eugenol)

Row | Compound | Stability in plasma samples [1] | Measured concentration, three freeze-thaw cycles [1, 4] [ng/mL] | Measured concentration, -80°C for 7 days [1, 4] [ng/mL] | Measured concentration, auto-sampler for 12 h [1, 4] [ng/mL] | Measured concentration, room temperature for 4 h [1, 4] [ng/mL] | Measured concentration, three freeze-thaw cycles [1, 5] [ng/mL] | Measured concentration, -80°C for 7 days [1, 5] [ng/mL] | Measured concentration, auto-sampler for 12 h [1, 5] [ng/mL] | Measured concentration, room temperature for 4 h [1, 5] [ng/mL] | Measured concentration, three freeze-thaw cycles [1, 6] [ng/mL] | Measured concentration, -80°C for 7 days [1, 6] [ng/mL] | Measured concentration, auto-sampler for 12 h [1, 6] [ng/mL] | Measured concentration, room temperature for 4 h [1, 6] [ng/mL] | MRT [2] [h] | Cmax [2] [µg/mL] | half-life [2] [h] | AUC(0-inf) [2] [µg·h/mL] | AUC(0-t) [2] [µg·h/mL] | Tmax [2] [h] | MRT last [2] [h] | also measured
1 | C=CCc1ccc2c(c1)OCO2 [Safrole] | stable | 12526.3 ± 331.5 | 12741.7 ± 103.1 | 12065.2 ± 210.7 | 12751.7 ± 38.6 | 137.0 ± 10.6 | 135.1 ± 11.0 | 136.3 ± 11.8 | 132.5 ± 12.4 | 1319.7 ± 21.2 | 1348.1 ± 41.4 | 1271.1 ± 3.3 | 1306.7 ± 15.7 | 18.4 ± 0.64 | 1.98 ± 0.267 | 2.44 ± 2.72 | 53 ± 5.26 | 53 ± 5.29 | 13 ± 1.1 | 18.4 ± 0.64 | MRT inf [2]: 18.4 ± 0.63 h; detectable in plasma samples after [2]: 48 h; IARC carcinogen group [3]: group 2B carcinogen
2 | C=CCc1ccc(OC)c(OC)c1 [Methyl eugenol] | stable | 7287.0 ± 522.7 | 7367.9 ± 638.7 | 7100.8 ± 230.4 | 7418.6 ± 62.9 | 78.5 ± 6.5 | 81.0 ± 5.2 | 73.9 ± 6.1 | 89.6 ± 8.8 | 708.5 ± 16.2 | 749.8 ± 40.7 | 727.7 ± 6.0 | 751.7 ± 7.8 | 10.6 ± 0.63 | 0.823 ± 0.124 | 3.67 ± 1.6 | 15.3 ± 2.79 | 15.2 ± 2.76 | 6.67 ± 2.07 | 10.6 ± 0.63 | MRT inf [2]: 10.6 ± 0.63 h; completely metabolised after [2]: 36 h; IARC carcinogen group [3]: group 2B carcinogen
